The record followed here is patent US20080200439A1, “Methods and compositions for modulating BK channel activity and vasodilation” (University of Tennessee Research Foundation, priority 2006, published 2008).

The target of the assay is cbv1+β1 channels (UniProt Q16558+Q62976). The assay can be described thus: Patch-clamp of heteromeric cbv1+β1 channels expressed in Xenopus oocytes. The class given is cell-based, rat. From the text:
cRNA Preparation and Injection into Xenopus Oocytes. Full-length cDNA coding for cbv1-subunits was cloned from rat cerebral artery myocytes by PCR and ligated to the PCR-XL-TOPO cloning vector (Invitrogen Corp., Carlsbad, Calif., United States of America) (Jaggar et al., 2005). cDNA coding for cbv1-subunits was cleaved from the cloning vector by BamHI (Invitrogen Corp., Carlsbad, Calif., United States of America) and XhoI (Promega, Madison, Wis., United States of America) and directly inserted into the pOX vector for expression in Xenopus oocytes. pOX-cbv1 was linearized with NotI (Promega, Madison, Wis., United States of America) and transcribed in vitro using T3 polymerase. Beta,-subunit cDNA inserted into the EcoR I/Sal I sites of the pCl-neo expression vector was linearized with NotI and transcribed in vitro using T7 polymerase. Beta4-subunit cDNA inserted into the pOx vector was linearized by NotI and transcribed using T3 polymerase. The mMessage-mMachine kit (Ambion Inc., Austin, Tex., United States of America) was used for transcription. The pOX vector and the cDNA coding for β1-subunits were generous gifts from Aguan Wei (Washington University, Saint Louis, Mo., United States of America) and Maria Garcia (Merck Research Laboratories, Whitehouse Station, N.J., United States of America).
Oocytes were removed from Xenopus laevis and prepared as described (Dopico et al., 1998). cRNA was dissolved in […] at 5 (cbv1) and 15 (β1 or β4) ng/μl; 1-μl aliquots were stored at −70° C. Cbv1 cRNA was injected alone (2.5 ng/μp) or coinjected with either β1 or β4 (7.5 ng/μl) cRNAs, giving molar ratios ≧6:1 (β:α). cRNA injection (23 nl/oocyte) was conducted using a modified micropipette (Drummond Scientific Co., Broomall, Pa., United States of America). The interval between injection and patch-clamp recordings was 48-72 h.
Electrophysiology. Oocytes were prepared for patch-clamp recordings as described (Dopico et al., 1998). Single-channel and macroscopic currents were recorded from inside-out (I/O) or outside-out (O/O) patches. For experiments with oocytes, both bath and electrode solutions contained (mM) 135 K^+ gluconate, 5 EGTA, 1 MgCl2, 15 HEPES, 10 glucose, pH 7.35. For experiments with myocytes, KCl substituted for K^+ gluconate. In all experiments, free Ca^2+ in solution was adjusted to the desired value by adding CaCl2. In most studies, free Ca^2+ in electrode solution=10 μM. In O/O studies with 17β-estradiol, however, free Ca^2+ in the electrode solution=0.3 μM. Nominal free Ca^2+ was calculated with MaxChelator Sliders (C. Patton, Stanford University, California, United States of America) and validated experimentally using Ca^2+-selective electrodes (Corning Incorporated Science Products Division, Corning, N.Y., United States of America).
Patch-recording electrodes were made as described (Dopico et al., 1998). Immediately before recording, the tip of each electrode was fire-polished on a microforge WPI MF-200 (World Precision Instruments, Inc., Sarasota, Fla., United States of America) to give resistances of 5-9 MD when filled with solution. An agar bridge with gluconate or Cl^− as the main anion (for oocyte and myocyte experiments, respectively) was used as ground electrode. After excision from the cell, the membrane patch was exposed to a stream of bath solution containing each agent at final concentration. Solutions were applied onto the patches using a pressurized system DAD12 (ALA Scientific Instruments, New York, N.Y., United States of America) via a micropipette tip with an internal diameter of 100 μm. Experiments were carried out at room temperature (21° C.).
Currents were recorded using an EPC8 amplifier (HEKA Electronics, Lambrecht/Pfalz, Germany) at 1 kHz using a low-pass, eight-pole Bessel filter 902LPF (Frequency Devices, Haverhill, Mass., United States of America). […]
In general terms: Patch clamp records ionic current or voltage across a cell membrane.

Structures are written as SMILES. “And” between values parts separate entries of the source, which are not always exact repeats. Identical values can stand only once. Like-named read-outs stand apart in the source and are kept apart here.

Chain of cbv1+β1 channels (Q62976 1-1148 isoform Q62976-2): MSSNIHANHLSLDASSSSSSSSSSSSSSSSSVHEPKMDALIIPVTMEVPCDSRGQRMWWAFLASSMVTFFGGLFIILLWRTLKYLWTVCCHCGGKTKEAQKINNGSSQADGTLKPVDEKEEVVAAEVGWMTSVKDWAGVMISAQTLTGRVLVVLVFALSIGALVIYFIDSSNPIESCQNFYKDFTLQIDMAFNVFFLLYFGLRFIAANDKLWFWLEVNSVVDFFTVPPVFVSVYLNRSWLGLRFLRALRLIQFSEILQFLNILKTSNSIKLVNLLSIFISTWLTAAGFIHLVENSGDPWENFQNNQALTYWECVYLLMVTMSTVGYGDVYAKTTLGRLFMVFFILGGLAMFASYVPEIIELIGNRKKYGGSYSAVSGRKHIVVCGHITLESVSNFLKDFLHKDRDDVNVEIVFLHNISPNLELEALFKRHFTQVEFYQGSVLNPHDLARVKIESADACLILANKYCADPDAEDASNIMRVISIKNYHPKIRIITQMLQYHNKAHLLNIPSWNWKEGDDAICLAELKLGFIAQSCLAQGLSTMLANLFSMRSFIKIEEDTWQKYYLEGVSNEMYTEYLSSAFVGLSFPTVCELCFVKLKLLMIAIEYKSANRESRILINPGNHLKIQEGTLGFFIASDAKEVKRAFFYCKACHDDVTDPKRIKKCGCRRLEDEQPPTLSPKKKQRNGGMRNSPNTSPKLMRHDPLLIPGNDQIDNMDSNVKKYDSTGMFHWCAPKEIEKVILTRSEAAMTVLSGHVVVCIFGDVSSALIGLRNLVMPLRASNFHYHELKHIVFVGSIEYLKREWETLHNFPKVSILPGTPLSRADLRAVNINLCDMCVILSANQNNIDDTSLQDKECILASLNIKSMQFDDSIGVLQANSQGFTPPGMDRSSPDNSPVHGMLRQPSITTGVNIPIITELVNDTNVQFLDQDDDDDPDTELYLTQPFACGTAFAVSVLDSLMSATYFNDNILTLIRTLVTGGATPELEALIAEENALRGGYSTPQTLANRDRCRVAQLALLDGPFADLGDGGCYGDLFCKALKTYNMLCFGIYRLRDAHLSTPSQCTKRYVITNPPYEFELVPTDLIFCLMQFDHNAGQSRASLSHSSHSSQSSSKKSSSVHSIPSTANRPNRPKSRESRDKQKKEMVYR
Chain of cbv1+β1 channels (Q16558 whole entry): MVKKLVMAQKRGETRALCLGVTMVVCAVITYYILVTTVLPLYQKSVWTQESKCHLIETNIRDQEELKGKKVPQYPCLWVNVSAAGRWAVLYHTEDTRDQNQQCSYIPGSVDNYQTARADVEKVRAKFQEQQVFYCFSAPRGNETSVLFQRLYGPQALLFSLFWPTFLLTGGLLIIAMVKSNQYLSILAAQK

The term EC50 denotes the concentration that produces a half-maximal response. With `C[C@H](CCC(=O)O)[C@H]1CC[C@H]2[C@@H]3CC[C@@H]4C[C@H](O)CC[C@]4(C)[C@H]3CC[C@]12C` [LC, 5β-cholanic acid 3α-ol], under “150 μM, 0.1 μM Ca2+”, the “LC-activation (as a percentage of NPo in vehicle)” value is recorded as 139.9±32.9%. Further, the Emax at 150 µM (150 μM, 1 μM Ca2+, read-out: LC-activation (as a percentage of NPo in vehicle), maximal effect) came out at 244 ± 58.9%. The Percent of control at 150 µM is, setting by setting: (150 μM, 30 μM Ca2+i, read-out: NPo in LC (% of control)) 172 ± 9.5%; (150 μM, patches with N=1, read-out: Channel mean closed time (% of control)) 41%; (150 μM, patches with N=1, read-out: Channel mean open time (% of control)) 137%. In addition, under “150 μM, FIG. 4B”, the “Decrease in mean close time” value was −60%. Under “150 μM, single-channel I/O patch (N=1), +20 mV, Ca2+i 10 μM”, the “Increase in Po” value is recorded as 320%. In addition, the Emax (I/O patches, Ca2+i 10 μM, read-out: NPo at Emax (% of control)) worked out at 290 ± 45%. Moreover, where the note is “I/O patches, Ca2+i 10 μM, ±20 mV, read-out: EC50 for increase in NPo”, the EC50 is 43.5 µM and 46 µM.
